The text below walks through data of publication PMC4784888, “Activity Based High-Throughput Screening for Novel O-GlcNAc Transferase Substrates Using a Dynamic Peptide Microarray” (PLoS ONE, 2016).

Where no end group is shown, it is not given here.

Holding throughout (assay type): biochemical, human
The subject of test [1] is purified m-OGT. Nature of the test: Ala scan of RBL-2_410–422 on peptide microarray. Particulars: 0.2 μg/μL purified m-OGT, 1 mM UDP-GlcNAc; for OGT activity against RBL-2_410–422 Ala mutants (in words): extra CG at NH2 terminal. As for the experimental part: (§1) One step OGT purification was performed using His60 Ni Gravity Flow Columns (Clontech) according to the manufacturer’s instructions. Briefly, the nickel column was equilibrated with a buffer containing 50 mM sodium phosphate, 300 sodium chloride, 20 mM imidazole, and pH 7.4, followed by incubation with cell lysate containing His tag OGT for 1h at 4°C. After washing several times using buffer containing 50 mM sodium phosphate, 300 sodium chloride, 40 mM imidazole, and pH 7.4, the recombinant OGT was eluted using elution buffer containing 50 mM sodium phosphate, 300 mM sodium chloride, 300 mM imidazole, and pH 7.4. The eluted fraction was concentrated through a 100,000 Da molecular weight cut off Amicon unit by centrifugation 10 min at 5000 RPM at 4°C.
(§2) Peptide O-GlcNAcylation was assessed using PamChip 4 microarray chips with a PamStation 12 instrument (Pamgene international, The Netherlands). The OGT enzyme reaction was prepared essentially as described[26] with minor modifications. Briefly, before addition of the enzyme reaction, the microarray was blocked with blocking buffer (1% BSA in TBS). After 30 cycles (2 cycles/min) blocking, the blocking buffer was aspirated and the microarray was incubated with 40 μL of the enzyme reaction containing OGT (lysate or purified), OGT reaction buffer (50 mM Tris—HCl, pH 7.5;1 mM DTT;12.5 mM MgCl2), a 1:1 pre-incubated mixture of anti-O-GlcNAc and FITC conjugated secondary antibody, and the sugar donor UDP-GlcNAc or water as a control for 480 cycles (2 cycles/min) at 30°C. The microarray was run in parallel by pumping the reaction up and down through the porous membrane at every cycle and a tiff image was obtained at every 20 cycles by a CCD camera inside the PamStation. O-GlcNAcylation of each peptide was detected by a fluorescent signal which was produced by an FITC conjugated antibody bound to the O-GlcNAc moiety on the peptide.
(§3) Image analysis was performed using BioNavigator 6 software (Pamgene international, The Netherlands). Briefly, each image was quantified by automated array grid finding and subsequent quantification of signal and local background for each individual spot. In this work, the signal median-minus-background value was used as the quantitative parameter for the O-GlcNAcylation of the peptide.
Synthesis of all the peptides was achieved by following a standard Fmoc SPPS strategy on a Symphony Multiple Peptide Synthesizer and starting from rink amide resin. The following Fmoc amino acids were used: Fmoc-Cys(Trt)-OH, Fmoc-Gly-OH, Fmoc-Lys(Boc)-OH, Fmoc-Glu(Otbu)-OH, Fmoc-Asn(Trt)-OH, Fmoc-Ser(tBu)-OH, Fmoc-Thr(tBu)-OH, Fmoc-Ala-OH, Fmoc-Pro-OH, Fmoc-Val-OH. Deprotection was performed using 20% piperidine in DMF, and coupling was performed using 1:0.9:2 amino acid/ HBTU/DIPEA in DMF. After completion of the synthesis, the protected peptidyl resins were incubated with a 10 mL mixture of TFA (trifluoroacetic acid): H2O: triisopropylsilane (TIPS): 1, 2-ethanedithiol (EDT) (9:0.5:0.25:0.25, v/v/v/v) and allowed to stir for 2 h at room temperature under a nitrogen atmosphere. The cleaving mixture was filtered and the resin was washed with TFA (2 mL) and DCM (4 mL). The residue was precipitated by treatment of precooled diethyl ether and centrifugation. Two times washing and centrifugation yielded the crude products in a pellet. The precipitated peptides were dissolved in water, frozen, and lyophilized. All products were stored at -20°C. Crude peptide analysis was carried out by LC-MS.
To further confirm this and investigate the role of this and surrounding amino acid residues in our activity based assay, we resynthesized the RBL-2 peptide present on the microarray and performed an Ala scan, thus replacing of all the possible O-GlcNAc sites (Ser and Thr) in RBL-2_420–422 (Fig 4A). To immobilize the peptides on the chip, all the peptides were prepared with an extra CG at the NH2 terminal to allow immobilization on the maleimide-based chip surface. […]

For test [2], the system named is m-OGT. Nature of the test: UDP-Glo assay of RBL-2_410–422 peptides. Here is the method: as §1
In this work OGT activity was also determined using UDP-Glo™ Glycosyltransferase Assay according to the manufacturer’s instructions. This assay evaluates O-GlcNAcylation through monitoring UDP formation in glycosyltransferase reactions by luminescence. Briefly, OGT reactions were carried out in 100 μL final volume containing 0.5 mM UDP-GlcNAc, 6 μg purified/60 μg lysate enzyme, 100 μM peptide in OGT reaction buffer (50 mM Tris—HCl, pH 7.5;1 mM DTT;12.5 mM MgCl2). Reactions were incubated at room temperature for 2h. At the end of that period, each reaction was transferred in triplicate into a 96-well white microplate and was mixed with a 1:1 ratio of UDP-Glo Detection Reagent. After incubation at room temperature for 1h, the luminescence was recorded with a Mithras LB940 Multimode microplate reader using Mikro Win 2000 software (Berthold Technology, Germany).
To further confirm this and investigate the role of this and surrounding amino acid residues in our activity based assay, we resynthesized the RBL-2 peptide present on the microarray and performed an Ala scan, thus replacing of all the possible O-GlcNAc sites (Ser and Thr) in RBL-2_420–422 (Fig 4A). To immobilize the peptides on the chip, all the peptides were prepared with an extra CG at the NH2 terminal to allow immobilization on the maleimide-based chip surface. Cys 415 was replaced by an Ala to avoid cyclisation by disulfide bond formation or dual modes of immobilization (S2 Fig). […] The mutants T421A decreased the O-GlcNAcylation of RBL-2_420–422 peptide by 40% compared to the control (wild type with C415A). […] In addition, OGT activity against these peptides was further validated using the UDP-Glo assay, which measures the amount of UDP produced when GlcNAc is transferred from UDP-GlcNAc to the sugar accepting peptide. […] This might be because the UDP assay is more sensitive than the antibody-based detection.
Fig 4 S420A is a possible O-GlcNAc site in the RBL-2 protein. A, peptide mutant used for an Ala scan. For immobilization purposes, peptides were prepared with an extra CG at the N-terminus and Cys 415 was replaced by Ala. B, OGT activity against RBL-2_410–422 peptide mutants was determined using peptide microarray analysis with 0.2 μg/μL purified m-OGT and 1 mM UDP-GlcNAc. C, UDP-Glo assay was used to measure O-GlcNAcylation of RBL-2_410–422 peptide mutants as well. D, kinetic signals from the same microarray experiment of panel B are shown.
O-GlcNAcylation of wild type RBL-2-410-422 and C415A peptide was determined using both the UDP assay(A) and the microarray assay (B) with 1 mM UDP-GlcNAc and 0.2 μg/μL purified m-OGT. […] (TIF) Click here for additional data file.

In test [3] the test system is purified m-OGT. As to the kind of experiment: Inhibition of OGT activity by RBL-2_S420A 410–422 peptide on nuclear receptor interaction peptide microarray. Particulars: purified m-OGT (0.2 μg/μL), UDP-GlcNAc 0.5 mM; for inhibition of OGT activity (in words): peptide 0.5 mM. Here is the method: as §1, §2, §3
We then used the identified substrate sequence as a starting point towards the discovery of novel selective OGT inhibitors. […] To test it, we determined its inhibitory effect on the O-GlcNAcylation of two OGT substrates identified in our work and a known OGT inhibitor was used as a positive control.
Fig 5 The RBL-2_S420A 410–422 peptide inhibited OGT activity. The inhibitory effect of RBL-2_S420A 410–422 peptide on OGT activity was determined on the nuclear receptor interaction peptide microarray. […]

The mark [4] stands for this setting: microarray, control wild type with C415A.
Where [5] appears, read: UDP-Glo, luminescence, 0.5 mM UDP-GlcNAc, 6 μg purified enzyme, 100 μM peptide, 50 mM Tris-HCl pH 7.5, room temperature 2 h, triplicate.

Turning to “T417A: Ala scan mutant of RBL-2_410–422 (CGKENSPAVAPVSTA-NH2)”, the “OGT activity against RBL-2_410–422 Ala mutants (in words)” value in test [1] (setting [4]) is recorded as “complete loss of OGT activity”. Moreover, in test [2] (setting [5]), the “remaining O-GlcNAcylation” value was 20%.

As to “T421A: Ala scan mutant of RBL-2_410–422 (CGKENSPAVTPVSAA-NH2)”, the “decrease of O-GlcNAcylation compared to control” value in test [1] (setting [4]) was 40%. In test [2] (setting [5]), the “O-GlcNAcylation activity in solution (in words)” value (“O-GlcNAcylation activity” for short) is on record as “consistent with the microarray results”.

For the substance S413A: Ala scan mutant of RBL-2_410–422, the “OGT activity against RBL-2_410–422 Ala mutants (in words)” value in test [1] (setting [4]) is recorded as “did not show any effect”. Also, in test [2] (setting [5]), the “O-GlcNAcylation activity” value is on record as “consistent with the microarray results”.

Take “C415A: RBL-2_410–422 peptide with Cys 415 replaced by an Ala (CGKENSPAVTPVSTA-NH2; UniProt Q08999 410-422, looked up, variant C415A)”: the “C415A effect on O-GlcNAcylation, overall statement” value in test [1] (UDP assay and microarray) is reported as “modest effect on O-GlcNAcylation”. Moreover, the “OGT activity of C415A compared with wild type, UDP assay” value in test [2] (UDP assay, 1 mM UDP-GlcNAc, 0.2 μg/μL purified m-OGT) is on record as “modest increase in OGT activity”.

As for “S420A: Ala scan mutant of RBL-2_410–422 (CGKENSPAVTPVATA-NH2)”, the “OGT activity against RBL-2_410–422 Ala mutants (in words)” value in test [1] (setting [4]) is recorded as “complete loss of OGT activity”. In test [2] (setting [5]), the “O-GlcNAcylation activity” value was “consistent with the microarray results”.

Take “RBL-2_S420A 410–422: S420A mutation peptide of RBL-2 410–422 tested as OGT inhibitor (CGKENSPAVTPVATA-NH2)”: in test [3] (500 μM S420A peptide, NCOA6_1479–1501 substrate), the “inhibition of O-GlcNAcylation of NCOA6” value is 50%. Besides, in test [3] (500 μM S420A peptide, WIPI 1 substrate), the “inhibition of O-GlcNAcylation of WIPI 1” value is 50%. Further, the “inhibition of OGT activity (in words)” value was “still binds to the OGT active site and therefore inhibited OGT activity” in test [3]; “significant inhibition of OGT activity” in test [3] (listed as RBL-2_S420A 420–422).
